This is an account of results in patent publication US6248309A, “Gums containing antimicrobial agents” (priority 1999, dated 2001).

The subject of experiment [1] is Actinomyces viscosus (AV). Kind of experiment: MIC of agents alone and in two-agent combination (Example 1). The class given is cell-based, Actinomyces viscosus ATCC 19246. The following applies: concentration of chloramphenicol (agent A). The method, then: (§1) The following example illustrates how the MIC of individual antimicrobial agents that are combined were determined and also illustrates how the MIC of the antimicrobial agents in combination were determined.
(§2) A microtiter plate was used to dilute the antimicrobial agents to varying concentrations in order to determine the MIC of those antimicrobial agents alone and the MIC of the agents when combined.
(§3) A bacterial culture was incubated at 37° C. Prior to the dilution of the antimicrobial agents as described below, the bacterial culture was spun down at 2,000 rpm into a pellet and resuspended in a solution of buffered phosphate. The innoculum was normalized with a spectrophotometer to an optical density at 550 nanometers of between 0.180-0.220 (equivalent to 5.0×10^7 colony forming units, CFU per milliliter). The innoculum was set aside until the completion of the antimicrobial agent dilution. […]
(§4) Following 48 hours of incubation, the incubated plate was read for microbial growth with a spectrophotometer by optical density (OD). The well containing the lowest dilution achievable for each agent with a spectrophotometer reading below 0.05 OD (i.e., no detectable microbial growth) was considered representative for the combination. The MIC for each agent in the combination was determined by accounting for the starting stock solution concentration and the resulting dilutions in the 96-well plate. […]

Experiment [2] concerns Fusobacterium nucleatum (FN). Described as above. The format is cell-based, Fusobacterium nucleatum ATCC 10933. Particulars: concentration of chloramphenicol (agent A). The method, then: as §1, §2, §3, §4
The test system of experiment [3] is Porphyromonas gingivalis (PG). Described as above. The class given is cell-based, Porphyromonas gingivalis ATCC 33277. The following applies: concentration of chloramphenicol (agent A). The method, then: as §1, §2, §3, §4
For experiment [4], the system named is Streptococcus mutans (SM). Described as above. The format is cell-based, Streptococcus mutans ATCC 25175. Particulars: concentration of chloramphenicol (agent A). The method, then:
as §1, §2, §3, §4

Experiment [5] deals with Streptococcus sanguis (SS). The experiment is described as above. The class given is cell-based, Streptococcus sanguis ATCC 49295. The following applies: concentration of chloramphenicol (agent A). The procedure: as §1, §2, §3, §4
Experiment [6] relates to Actinomyces viscosus (AV). Description: MIC of individual antimicrobial agents (Example 4). The following applies: Table 18. The class given is cell-based, Actinomyces viscosus ATCC 19246. The text has this:
(§5) The following example illustrates how antimicrobial agents useful in gum compositions of the present invention retard or prevent the growth of dental plaque bacteria present in the oral cavity. In addition, the example illustrates the lowest concentration of various antimicrobial agents that will inhibit visible in vitro growth of a particular bacteria.
(§6) The assay used a microtiter plate to dilute the antimicrobial agent to varying concentrations in order to determine the MIC.
(§7) A bacteria culture was incubated overnight at 37° C. Prior to dilution of the antimicrobial agents as described below, the bacterial culture was spun down at 2000 rpm into a pellet and resuspended in a solution of buffered phosphate. […]
(§8) The 96-well plate was incubated under conditions that varied depending on the particular microorganism. […] Following 48 hours of incubation, the incubated plate was read for microbial growth with a spectraphotometer by optical density (OD). The well containing the lowest dilution achievable with a spectraphotometer reading below 0.05 OD (i.e., no detectable microbial growth) was considered representative for the antimicrobial agent. The MIC for the agent was determined by accounting for the starting stock solution concentration and the resulting dilutions in the 96-well plate. […]

Experiment [7] concerns Fusobacterium nucleatum (FN). Description: MIC of individual antimicrobial agents (Example 4). The class given is cell-based, Fusobacterium nucleatum ATCC 10933. Particulars: Table 18.
Text: as §5, §6, §7, §8

Experiment [8] deals with Porphyromonas gingivalis (PG). Description: MIC of individual antimicrobial agents (Example 4). Particulars: Table 18. The class given is cell-based, Porphyromonas gingivalis ATCC 33277.
Text: as §5, §6, §7, §8

Experiment [9] has as its system Streptococcus mutans (SM). Kind of experiment: MIC of individual antimicrobial agents (Example 4). The following applies: Table 18. The format is cell-based, Streptococcus mutans ATCC 25175.
Text: as §5, §6, §7, §8

The subject of experiment [10] is Streptococcus sanguis (SS). Kind of experiment: MIC of individual antimicrobial agents (Example 4). Particulars: Table 18. The class given is cell-based, Streptococcus sanguis ATCC 49295.
Text: as §5, §6, §7, §8

In general, MIC refers to the lowest concentration that inhibits growth of the organism.

For `O=C(NC(CO)C(O)c1ccc([N+](=O)[O-])cc1)C(Cl)Cl` (stereo not shown) [CR1, 2,2-dichloro-N-[2-hydroxyl-1-(hydroxymethyl)-2-(4-nitrophenyl)ethyl]acetamide], the “MIC of Chloramphenicol alone and when combined with Agent B” value worked out at 5.4 µg/mL in [1]; 1.8 µg/mL in experiment [2]; 6.9 µg/mL in [3]; 5.2 µg/mL in experiment [4]; 3.2 µg/mL in experiment [5]. For the same molecule, the MIC amounted to 3.1 µg/mL in experiment [6]; 3.1 µg/mL in experiment [7]; 6.3 µg/mL in [8]; 3.1 µg/mL in experiment [9]; 3.1 µg/mL in experiment [10].
